Assay results as given in US20190125735A1, “INHIBITION OF P38 MAPK FOR THE TREATMENT OF CANCER” (Board of Regents, The University of Texas System, priority 2015, published 2019).

How the values were obtained:
DU145 cells [1] = test: Wound healing assay, DU145 cells; assay type: cell-based, human; details: DU145, 5 μM, 7 days
Experimental: (§1) Immunoblotting, Immunofluorescence, RTPCR, wound healing- and tumorsphere assays were performed as previously described (Sarkar et al., 2015). Cell viability (MTS) was assessed using the CellTiter96 Aqueous One-Solution Cell Proliferation Assay kit (Promega).

HMLE cells = test: FOXC2 immunostaining at leading edge of scratched HMLE monolayer; assay type: cell-based, human; details: 9 h post-wound
Experimental: FIGS. 13A-13F: FOXC2 expression correlates with p38 activation in cells with mesenchymal and stem cell properties. […] (B) Cell lysates from the indicated cells were analyzed by immunoblotting for p-p38, p38 and FOXC2. β-actin was used as a loading control. […] Cell lysates were analyzed by immunoblotting for FOXC2. β-actin was used as a loading control (D) The indicated cells were transduced with p38 shRNA (shp38) or control shRNA (shControl). Cell lysates were analyzed by immunoblotting for p38 and FOXC2. β-actin was used as a loading control. […] (F) For the wound healing assay, a confluent monolayer culture of epithelial HMLE cells was scratched with a sterile pipette tip. […] Nuclei were counterstained with DAPI. Scale bar, 20 μm.

DU145 cells [2] = test: FACS CD44/CD24 in DU145 cells; assay type: cell-based, human; details: DU145, 5 μM, 7 days
Experimental: Fluorescence-activated cell sorting (FACS) for PSAHi & PSA−/lo cells and CD44Hi & CD24Lo cells was performed as described previously (Hollier et al., 2013) using BD Influx sorter.

HMLER cells = test: Sphere formation of HMLER cells expressing FOXC2 variants; assay type: cell-based, human
Experimental: For this, phosphomimetic FOXC2(S367E) and non-phosphorylatable FOXC2(S367A) mutants were generated and their ability to bestow mesenchymal and stem-cell traits relative to wild-type FOXC2 (referred to as FOXC2) was evaluated.

DU145 cells [3] = test: MTS cell survival assay, DU145 cells; assay type: cell-based, human
Experimental: as §1

4T1 cells = test: 4T1 orthotopic mouse mammary carcinoma model (primary tumor, lung metastasis, CTCs); assay type: in vivo
Text: In order to investigate this, the 4T1 mouse mammary carcinoma model, which recapitulates many of the characteristics of human breast cancer, was employed.
Tumor progression was monitored weekly using caliper measurements and bioluminescence. Starting week 3 post-implantation, 5 mice per group were sacrificed and surgically excised the primary tumors and lungs were surgically excised. […] This observation was corroborated by caliper measurements (FIG. 15C) and the bioluminescent signal emitted by these tumors (FIGS. 20A, 20B). Indeed, there were no significant differences in the latency and growth rates of the vehicle- and SB203580-treated primary tumors during this timecourse (FIGS. 15C and 20B).
NOD/SCID and BALB/c mice were purchased from the Jackson Laboratory (Bar Harbor, Me., USA). To examine primary tumor formation and spontaneous metastasis, luciferase-labeled 4T1 cells (1×10^4 or 5×10^4) were injected into the inguinal mammary fat-pad of BALB/c mice. For experimental metastasis studies, 0.5×10^6 luciferase-labeled MDA-MB-231 cells were injected into NOD/SCID mice via the tail vein. […] Mice were assessed weekly for tumor growth and metastasis via subcutaneous injection of D-Luciferin (150 mg/kg; Caliper LifeSciences, Hopkinton, Mass., USA) and bioluminescent imaging (IVIS imaging system 200 series; Xenogen Corporation, PerkinElmer, Waltham, Mass., USA). Primary tumor size was measured with a caliper as the product of two perpendicular diameters (mm^2). At the indicated timepoints, primary tumors and lungs were surgically excised, imaged and processed for histology.
Mice were orthotopically injected with red fluorescent protein (RFP)/luciferase-labeled 4T1 cells. Starting week 3 post-injection, blood was collected, via cardiac puncture, in EDTA-coated tubes and treated with Ammonium-Chloride-Potassium lysing buffer (Invitrogen). Cells were cultured in RPMI-1640 medium containing 10% fetal bovine serum and penicillin/streptomycin. RFP-positive colonies were counted after 3 days.

mouse BCR-ABL+ ALL cells = test: BCR-ABL+ ALL model in NOD-SCID mice; assay type: in vivo; details: dasatinib 10 mg/kg oral, dexamethasone 1 mg/kg oral, SB203580 40 mg/kg i.p.; treatment from day 5
Text: Leukemia progression was monitored by both bioluminescence imaging and quantifying mCherry+ ALL cells in peripheral blood samples by flow cytometry. […] Non-obese diabetic severe combined immunodeficient (NOD-SCID) mice were housed under high-barrier conditions in the Department of Veterinary Medicine and Surgery at MD Anderson. To generate the in vivo leukemia model, six to eight weeks old NOD-SCID mice were intravenously injected with luciferase- and mCherry-expressing BCR-ABL+ mouse leukemic cells (2×10^6 cells); engraftment of the transplanted cells was confirmed by bioluminescence imaging. For bioluminescence imaging, each mouse was intraperitoneally injected with D-Luciferin (150 mg/kg) and imaged using the IVIS Lumina imaging system (PerkinElmer).
Leukemia treatment started 5 days after transplantation. […] Treatment was continued until mice were succumbed to disease.
Bone marrow samples from the mice were harvested 4 days after initiating the drug treatment. […] Peripheral blood specimens were directly harvested from mice tail tips into PBS supplemented with ethylenediaminetetraacetic acid (2 mM). Red blood cells were subjected to lysis and were neutralized with 20% fetal bovine serum supplemented with alpha minimum essential medium. mCherry+ leukemic cells in the peripheral blood were detected by flow cytometry analysis after red blood cells were lysed.

[4] = test system: HMLE-Snail, HMLE-Twist, MDA-MB-231 and SUM159 cells; test: EMT marker immunoblotting in mesenchymal mammary cells; assay type: cell-based, human; details: relative to vehicle-treated cells
Experimental: (§2) It was next ascertained whether p38 inhibition compromises the maintenance of the established EMT phenotype.
Immunoblotting and immunofluorescence (Mani et al., 2008) were performed as previously described. Primary antibodies were as follows: β-actin (Sigma, St Louis, Mo., USA; A3853), mouse anti-human FOXC2 (Dr. Naoyuki Miura, Hamamatsu University School of Medicine, Japan), goat polyclonal anti-FOXC2 (Santa Cruz Biotechnology, Dallas, Tex., USA; sc-21397), p-p38 (Cell Signaling, Danvers, Mass., USA; 4511), p38 (Cell Signaling; 9211), E-cadherin (BD Biosciences, San Jose, Calif., USA; 61081), fibronectin (BD Biosciences; 610077), vimentin (Novus Biologicals, Littleton, Colo., USA; NB200-623), ZEB1 (Novus Biologicals; NBP1-05987), and HA (Covance, Princeton, N.J., USA; MMS-101P).

[5] = test system: BCR-ABL+ mouse ALL cells seeded on MSCs; test: Post-screening leukemic cell cluster formation underneath pretreated MSCs; assay type: cell-based; details: imatinib 5 μM with SB203580 20 μM or dexamethasone 50 nM, 4 days + 24 hours
Text: Phase-contrast images of co-cultured MSCs and ALL cells were obtained using an Axio Observer.Z1 microscope, an AxioCam MR camera, and AxioVision software (Zeiss, Oberkochen, Germany). For screening, a cluster was defined as a group of more than five leukemic cells under the MSCs. The total number of leukemic cell clusters was the average number of clusters from three different fields (10× objective). For post-screening experiments, a cluster was defined as a group of more than 10 leukemic cells under the MSCs. The total number of leukemic cell clusters was the average number of clusters from 10 different fields (10× objective).

[6] = test system: HMLE-Snail, HMLE-Twist, MDA-MB-231 and SUM159 cells; test: Sphere formation of mesenchymal mammary cells; assay type: cell-based, human; details: relative to vehicle-treated cells
Experimental: as §2
Quantification of invadopodia (Eckert et al., 2011), scratch/wound-healing assays (Sarkar et al., 2015) fluorescence-activated cell sorting (FACS), and sphere-formation assays (Mani et al., 2008) were conducted as described previously.

Compound: C[S+]([O-])c1ccc(-c2nc(-c3ccc(F)cc3)c(-c3ccncc3)[nH]2)cc1 (stereo not shown) [SB203580, 4-(4-Fluorophenyl)-2-(4-methylsulfinylphenyl)-5-(4-pyridyl) 1H-imidazole]
- Migratory potential (DU145 cells [1]): significant reduction in migratory potential
- Upregulation of FOXC2 at the leading edge of scratch (HMLE cells): abrogated the upregulation of FOXC2 at the leading edge
- CD44^hi/CD24^lo fraction (DU145 cells [2]): significant reduction
- Sphere-forming capacity (HMLER cells; HMLER-FOXC2(S367E) cells): retained the ability to form spheres even in the presence of SB203580
- Sphere-forming capacity (HMLER cells; HMLER-FOXC2 cells): reduced
- Sensitivity of cells to Docetaxel (cell survival) (DU145 cells [3]; DU145, SB203580 pre-treatment then co-treatment with SB203580 and Docetaxel): significantly resensitized
- Sensitivity of cells to Enzalutamide (cell survival) (DU145 cells [3]; DU145, SB203580 pre-treatment then co-treatment with SB203580 and Enzalutamide): significantly resensitized
- Primary tumor size (4T1 cells; 4T1 cells, daily treatment, weeks 3-6): primary tumors of a similar size relative to vehicle-treated counterparts
- Lung metastases (bioluminescent signal) (4T1 cells; 4T1 cells, systemic daily treatment): strikingly fewer lung metastases
- Metastatic burden (lung) (4T1 cells; mice harboring 4T1-FOXC2(S367E) cells): failed to significantly reduce the metastatic burden
- Reduction of incidence of lung metastases compared to vehicle (4T1 cells; mice harboring 4T1-vector cells, daily SB203580): > 20 fold
- Primary tumor growth (4T1 cells; mice harboring 4T1-vector or 4T1-FOXC2(S367E) cells): no significant differences in primary tumor growth
- Microvessel density of primary tumors (CD31 immunohistochemistry) (4T1 cells; vs vehicle-treated): did not reveal significant differences
- CTCs recovered from blood (4T1 cells; week 6 post-implantation): very few CTCs were recovered
- CTCs recovered from blood (4T1 cells; weeks 3-5 post-implantation): no CTCs were recovered from SB203580-treated mice until week 5
- Leukemia progression and survival (therapeutic efficacy) (mouse BCR-ABL+ ALL cells): did not slow leukemia progression or prolong survival
- Expression of EMT markers [4]: altered the expression of EMT markers
- Leukemic cell clusters underneath imatinib-pretreated MSCs [5]: completely prevented leukemic cell cluster formation
- Sphere-formation [6]: substantially reduced sphere-formation
